Measurements reported in paper PMC7731434, “Development and Validation of a Bioanalytical Method for 3′- and 6′-Sialyllactose in Minipig Liver and Kidney Using Liquid Chromatography-Tandem Mass Spectrometry and Its Application to Analysis of Tissue Distribution” (Molecules, 2020).
Read-outs that look alike come from different tables or passages of the source.

Experiments:
[1] = Biological sample stability: post-preparative, autosampler tray; type: physicochemical, minipig; conditions: for Post-preparative stability (RE), range: 21 h at 10 °C; for Post-preparative stability, RE (%): 10 °C for 21 h, n = 3
Experimental: (§1) Benchtop and long-term stability were evaluated simultaneously. The benchtop stability test was carried out at room temperature (24 °C) for 4 h using samples with long-term stability, i.e., those stored at −80 °C for 34 days. […] The post-preparative stability (RE) of samples after 21 h of storage at 10 °C in an autosampler tray ranged from –3.1% to 8.7% for liver QC samples and −10.2% to 4.7% for kidney QC samples of 3′-SL and 6′-SL. To investigate freeze/thaw stability, QC samples were frozen at −80 °C and thawed at room temperature over four cycles. The stability of all QC samples of 3′-SL and 6′-SL ranged from −6.7% to 7.6% for the liver and −9.3% to −3.2% for the kidney. All stability results satisfied the acceptance criterion of ±15% of the nominal concentration.
(§2) The biological samples were evaluated for benchtop, freeze/thaw, post-preparative, and long-term stability. The stability tests were performed by measuring LQC and HQC samples with three replicates. The background concentration of SL in the blank authentic tissues was set to the nominal LQC concentration in the stability test. As the background concentration of SL in the authentic matrix is similar to or higher than the LQC (60 ng/g), the deviation of the background concentration of SL markedly affects the accuracy of LQC. The background concentration of the blank samples was determined on initiation of the stability test. The HQC samples were prepared by adding a standard solution to the authentic matrix, and the results were calculated by subtracting the endogenous concentration in the blank matrix. Benchtop and long-term stability were evaluated simultaneously with the benchtop stability test carried out at room temperature (approximately 24 °C) for 4 h using samples with long-term stability (stored at −80 °C for 34 days). The post-preparative stability was assessed at 10 °C on an autosampler tray for 21 h. The freeze/thaw stability was evaluated by four cycles of freezing at −80 °C and thawing at room temperature.

[2] = Tissue distribution study in minipigs after intravenous administration; type: in vivo, Yucatan minipigs; conditions: minipig; for T/P Ratio Kidney/Plasma / T/P Ratio Liver/Plasma / Kp at 2 h / concentration at 2 h: 2 h after intravenous administration of 12.5 mg/kg; for T/P Ratio Kidney/Plasma / T/P Ratio Liver/Plasma / Kp at 2 h: 12.5 mg/kg; for Kp at 2 h / concentration at 2 h: Yucatan; for Kp at 2 h: iv
Experimental: A tissue distribution study was conducted involving intravenous injection of minipigs with 3′-SL and 6′-SL at a dose of 12.5 mg/kg. Kidney, liver, and blood samples were collected. The tissue to plasma (T/P) ratio was also calculated from the concentrations of 3′-SL and 6′-SL in the kidney, liver, and plasma, from the same minipigs at the same time points.
The tissue distribution of 3′-SL and 6′-SL in Yucatan minipigs was assessed following intravenous administration at a dose of 12.5 mg/kg. The animal experiments were performed in compliance with the Animal Welfare Act and Guide for the Care and Use of Laboratory Animals of Institute for Laboratory Animal Research (ILAR). The animals were kept in a single cage at constant room temperature (23 ± 3 °C) and 30–70% humidity under a regular 12-h light/12-h dark cycle. Animals were provided with approximately 25 g/kg/day food and water was freely available.
Two minipigs were sacrificed at 2 h after administration; liver and kidney tissues, and blood from the jugular vein, were then collected. Each tissue was immediately removed and washed with normal saline, blotted dry with a paper towel, cut into pieces with scissors, and individually homogenized with three volumes of normal saline (v/w) in an Ultra-Turrax apparatus (IKA Works, Wilmington, NC, USA). After blood collection into K2-EDTA tubes, blood samples were gently mixed and placed on crushed wet-ice/Kryorack (Streck Laboratories, Omaha, NE, USA). Following centrifugation at 20,740 × g for 3 min at 4 °C for separation of plasma, the plasma was transferred into labeled polypropylene tubes.
The collected tissues were analyzed using the method developed in this study, and the plasma was analyzed by the method described in our previous study (in press).

[3] = Biological sample stability: freeze/thaw, four cycles; type: physicochemical, minipig; conditions: for Freeze/thaw stability, RE (%): four cycles -80 °C/room temperature, n = 3; for Freeze/thaw stability (RE), range: all QC samples of 3′-SL and 6′-SL pooled, four cycles
Experimental: as §1, §2

[4] = Biological sample stability: benchtop (room temperature 4 h) and long-term (-80 °C, 34 days); type: physicochemical, minipig; conditions: for Benchtop and long-term stability, RE (%): -80 °C 34 days then room temperature 4 h, n = 3; for Benchtop and long-term stability values (RE), range: all QC samples of 3′-SL and 6′-SL pooled
Experimental: as §1, §2

[5] = kidney QC samples of 3′-SL and 6′-SL pooled
[6] = kidney, LQC (nominal = background concentration)
[7] = liver QC samples of 3′-SL and 6′-SL pooled
[8] = liver, LQC (nominal = background concentration)
[9] = kidney / plasma, read-out: T/P Ratio Kidney/Plasma
[10] = liver / plasma, read-out: T/P Ratio Liver/Plasma
[11] = kidney, read-out: Tissue Concentration Kidney
[12] = liver, read-out: Tissue Concentration Liver
[13] = plasma, read-out: Tissue Concentration Plasma

Row | Post-preparative stability (RE), range [1, 5] | Post-preparative stability, RE (%) ([1]; kidney, HQC 15,000 ng/g) | Post-preparative stability, RE (%) [1, 6] | Post-preparative stability (RE), range [1, 7] | Post-preparative stability, RE (%) ([1]; liver, HQC 15,000 ng/g) | Post-preparative stability, RE (%) [1, 8] | T/P Ratio Kidney/Plasma [2] | T/P Ratio Liver/Plasma [2] | Kp at 2 h [2, 9] | Kp at 2 h [2, 10] | concentration at 2 h [2, 11] | concentration at 2 h [2, 12] | concentration at 2 h [2, 13] | Freeze/thaw stability, RE (%) ([3]; kidney, HQC 15,000 ng/g) | Freeze/thaw stability, RE (%) [3, 6] | Freeze/thaw stability (RE), range ([3]; kidney) | Freeze/thaw stability, RE (%) ([3]; liver, HQC 15,000 ng/g) | Freeze/thaw stability, RE (%) [3, 8] | Freeze/thaw stability (RE), range ([3]; liver) | Benchtop and long-term stability, RE (%) ([4]; kidney, HQC 15,000 ng/g) | Structure (SMILES) | further results
1 | −10.2% to 4.7 | −3.3% | −10.2% | –3.1% to 8.7 | −2.7% | −1.3% | 1.0 | 0.12 | 1 to 1.3 | 0.12 to 0.14 | 22300 ng/g | 2550 ng/g | 21500 ng/g | −8.0% | −3.2% | −9.3% to −3.2 | −6.7% | −5.8% | −6.7% to 7.6 | −6.0% | CC(=O)N[C@H]1[C@H]([C@H](O)[C@H](O)CO)O[C@@](O[C@H]2[C@@H](O)[C@@H](CO)O[C@@H](O[C@H]3[C@H](O)[C@@H](O)[C@H](O)O[C@@H]3CO)[C@@H]2O)(C(=O)O)C[C@@H]1O [3′-SL, 3′-sialyllactose] | Benchtop and long-term stability, RE (%) [4, 6]: −9.2%; Benchtop and long-term stability values (RE), range ([4]; kidney): −10.1% to −6.0; Benchtop and long-term stability, RE (%) ([4]; liver, HQC 15,000 ng/g): −5.3%; Benchtop and long-term stability, RE (%) [4, 8]: −7.6%; Benchtop and long-term stability values (RE), range ([4]; liver): −7.6% to 3.7
2 | −10.2% to 4.7 | 4.7% | 0.5% | –3.1% to 8.7 | 8.7% | −3.1% | 1.3 | 0.14 | 1 to 1.3 | 0.12 to 0.14 | 27000 ng/g | 3030 ng/g | 21000 ng/g | −9.3% | −6.8% | −9.3% to −3.2 | −5.3% | 7.6% | −6.7% to 7.6 | −6.7% | CC(=O)NC1C(O)CC(OCC2OC(OC3C(CO)OC(O)C(O)C3O)C(O)C(O)C2O)(C(=O)O)OC1C(O)C(O)CO (stereo not drawn) [6′-SL, 6′-sialyllactose] | Exposure of tissues to 6′-SL higher than that of 3′-SL ([2]; liver and kidney, 2 h after i.v. 12.5 mg/kg): approximately 20%; Benchtop and long-term stability, RE (%) [4, 6]: −10.1%; Benchtop and long-term stability values (RE), range ([4]; kidney): −10.1% to −6.0; Benchtop and long-term stability, RE (%) ([4]; liver, HQC 15,000 ng/g): −3.3%; Benchtop and long-term stability, RE (%) [4, 8]: 3.7%; Benchtop and long-term stability values (RE), range ([4]; liver): −7.6% to 3.7
